Reference: patent US20130130903A1, “Suppression of Foliar and Soilborne Pathogens” (priority 2003, published 2013)
Read-outs that look alike come from different tables or passages of the source.

Experiments:
stripe rust = assay: Bobwhite NILs under natural stripe rust infection, Pullman 2002; assay type: in vivo, Puccinia striiformis; details: for Yield: Pullman 2002, cultivar Bobwhite (res.)
Excerpt: (§1) This example describes the response of glyphosate resistant and glyphosate sensitive spring wheat to inoculation with soil pathogens as judged by wheat yield. Inoculation simulates the green-bridge effect of dying weeds and volunteer in a standing wheat crop. The soil pathogens assessed were: Rhizoctonia solani isolate AG-8 and Gaeumannomyces graminis var. tritici. These pathogenic strains are prevalent in the Pacific Northwest and were isolated from the region. They have been maintained by the Department of Plant Pathology and USDA researchers at Washington State University.
(§2) Near isogenic lines (glyphosate resistant and glyphosate sensitive) of Westbred 926 and Bobwhite were seeded using a no-till drill at three different sites (Lind, Davenport and Pullman, Wash.).
(§3) To introduce the root pathogens into the wheat seed for distribution into the field, oat seeds, autoclaved and sterilized, were inoculated for each soilborne pathogen using isolated pathogen cultures. Oat seeds that were non-inoculated, but sterilized and autoclaved, served as a control. Following two weeks of pathogen growth, the inoculated oat seeds were dried down for 2 days and screened for potential contamination. To establish a green-bridge, a mixture of 15% barley and 20% oat inoculum seeds (by weight) were planted using a small plot no-till drill. One week after planting the introduced green-bridge, the wheat isolines were planted in rows adjacent to the barley green-bridge rows in a randomized, split-plot design, replicated in five randomized blocks. Inoculum treatment served as the main plot, and response to herbicides as the subplot factor.
(§4) This example describes the effect of herbicide treatment on spring wheat, averaged over all disease treatments, planted as described in Example 1. The appropriate herbicide was applied to each trial once the plants reached the 4-5 leaf stage with a custom built hand-pulled sprayer outfitted with a boom with a length of 16 feet with spray shields on the side to minimize drift. In this manner, an entire plot was treated at once with the appropriate herbicide rate. Entries that were resistant to glyphosate were treated with ROUNDUP® brand herbicide (0.63 kg/ha), available from Monsanto, St. Louis, Mo. Herbicide sensitive and resistant entries were treated with a common broadleaf herbicide treatment (Buctril/Harmony) or a no-spray control. Introduced green-bridge barley and any other weeds were manually removed 7-10 days after spray treatment to simulate the time required for ROUNDUP to take effect and maintained weed-free conditions to provide an accurate comparison to commercial weed management strategies needed to assess potential herbicide/disease interactions.
This example describes the effect of herbicides on natural stripe rust infection of NILs of Bobwhite with and without glyphosate tolerance. The wheat was seeded and inoculated with Rhizoctonia and Ggt as described in Example 1. The yield results from the Pullman site are recorded in Table 6.

[1] = tested on: Rhizoctonia solani isolate AG-8 and Gaeumannomyces graminis var. tritici (averaged over all fungal inoculation treatments); assay: Field yield of spring wheat after herbicide treatment, averaged over all fungal inoculation treatments; assay type: in vivo; details: for Yield: glyphosate (ROUNDUP 0.63 kg/ha) on glyphosate res. wheat, Buctril/Harmony on sensitive wheat, 4-5 leaf stage
Excerpt: as §1, §2, §3, §4

[2] = tested on: Gaeumannomyces graminis var. tritici (Ggt); assay: Field yield of Ggt inoculated spring wheat after herbicide treatment; assay type: in vivo; details: for Yield: Ggt inoculated, glyphosate on glyphosate res. wheat, Buctril/Harmony on sensitive wheat
Excerpt: as §1, §2, §3
as §4, with “interactions. […]” for “interactions.”

Ggt = details: New Zealand studies; green-bridge effect on couch grass; cited from earlier work
[3] = tested on: Rhizoctonia solani isolate AG-8; assay: Field yield of Rhizoctonia inoculated spring wheat after herbicide treatment; assay type: in vivo; details: for Yield: glyphosate on glyphosate res. wheat, Buctril/Harmony on sensitive wheat
Excerpt: as §1, §2, §3
as §4, with “interactions. […]” for “interactions.”

R. solani = details: cited from earlier work
non-inoculated wheat = assay: Field yield of non-inoculated spring wheat after herbicide treatment; assay type: in vivo; details: for Yield: 2002, non-inoculated, glyphosate on glyphosate res. wheat, Buctril/Harmony on sensitive wheat
Excerpt: as §1, §2, §3
as §4, with “interactions. […]” for “interactions.”

soybean rust = assay: Suppression of soybean rust on glyphosate resistant soybean lines; assay type: in vivo
Excerpt: This example describes the suppression of soybean rust using glyphosate treatment of glyphosate resistant soybean varieties.
Two different Roundup Ready soybean lines were used: Line 1 (purple flowers/grey pubescence) and Line 2 (white flowers/grey pubescence). Both lines are glyphosate resistant and have been classified as maturity group 3, with white or purple flowers and grey pubescence. The following treatments were used:
Treatment 1: No glyphosate spray before or after inoculation
Treatment 2: One application of glyphosate (48 oz./A) ([…] of active ingredient) three days before inoculation
Treatment 3: Twice the amount of glyphosate as in Treatment 2 (96 oz./A) ([…] of active ingredient) applied three days before inoculation
Treatment 4: One application of glyphosate (48 oz./A) three days before inoculation, and one application (48 oz./A) (1.5 kg/ha of active ingredient) when symptoms of soybean rust first appeared.
Treatment 5: No glyphosate spray before inoculation, and one application (48 oz./A) (1.5 kg/ha of active ingredient) when symptoms of soybean rust first appeared.

O=C(O)CNCP(=O)(O)O [glyphosate, N-phosphonomethylglycine]
stripe rust symptoms (stripe rust; Bobwhite cultivars under severe stripe rust conditions): only moderate stripe rust symptoms
Yield (stripe rust; inoculation Ggt): 49.0 bu/acre
Yield (stripe rust; inoculation None): 44.9 bu/acre
Yield (stripe rust; inoculation Rhizoctonia): 40.0 bu/acre
yields of glyphosate resistant Bobwhite NILs (stripe rust; regardless of what pathogen had been introduced): superior yields
Yield ([1]; Davenport): 28.9 bu/acre
Yield ([1]; Lind): 14.2 bu/acre
Yield ([1]; Pullman): 56.5 bu/acre
grain produced versus glyphosate sensitive NILs treated with Buctril/Harmony Extra or the no spray control ([1]; RoundUp Ready spring wheat, regardless of disease treatment or location): significantly (P=0.001) more grain
yield of glyphosate resistant wheat versus other treatments ([1]; Table 2, each trial): higher yields in each trial
Yield ([2]; Davenport): 28.7 bu/acre
Yield ([2]; Lind): 14.4 bu/acre
Yield ([2]; Pullman): 57.0 bu/acre
yield versus untreated and Buctril/Harmony treated glyphosate sensitive wheat ([2]; glyphosate resistant, Ggt inoculated wheat, each location): significantly superior (P<0.05)
levels of infection of cereals with Ggt (Ggt): increases the levels of infection with Ggt
Yield ([3]; Davenport): 29.0 bu/acre
Yield ([3]; Lind): 14.0 bu/acre
Yield ([3]; Pullman): 53.9 bu/acre
yield relative to untreated and Buctril/Harmony treated glyphosate sensitive wheat ([3]; glyphosate resistant wheat): enhanced yield at each location
grain yields of glyphosate-sensitive barley under R. solani (R. solani; glyphosate applied in the fall or three weeks prior to planting): no significant yield depression
grain yields of glyphosate-sensitive barley under R. solani (R. solani; glyphosate applied three days before planting): significantly reduced grain yields
Yield (non-inoculated wheat; Davenport): 29.1 bu/acre
Yield (non-inoculated wheat; Lind): 14.2 bu/acre
Yield (non-inoculated wheat; Pullman): 55.6 bu/acre
yield of glyphosate-resistant wheat lines (non-inoculated wheat; in the absence of additional pathogen inoculum): increases yield
effect on soy rust (soybean rust; treatments 2 and 3: 48 oz./A or 96 oz./A three days before inoculation): dose-dependent effect on soy rust
effect on soybean infected with soy rust (soybean rust; treatments 4 and 5: 48 oz./A when symptoms of soybean rust first appeared): curative effect
